# Source: ChEMBL document CHEMBL1131865, “Aminomethyl-2,6-difluorophenols as a novel class of increased lipophilicity GABA(C) receptor antagonists” (Bioorg Med Chem Lett, 1999)
# Calls of active or inactive are those of the source. No cut-off for these calls is given here.
# Experiments:
# [1] = Partition coefficient (logD); type: physicochemical; conditions: octanol/water
# GABA B receptor = GABA B receptor (Rattus norvegicus, UniProt O88871+Q9Z0U4); test: Displacement of [3H]GABA from Gamma-aminobutyric acid type B receptor in rat brain membranes; type: cell membranes
# Chain of GABA B receptor (Q9Z0U4 whole entry): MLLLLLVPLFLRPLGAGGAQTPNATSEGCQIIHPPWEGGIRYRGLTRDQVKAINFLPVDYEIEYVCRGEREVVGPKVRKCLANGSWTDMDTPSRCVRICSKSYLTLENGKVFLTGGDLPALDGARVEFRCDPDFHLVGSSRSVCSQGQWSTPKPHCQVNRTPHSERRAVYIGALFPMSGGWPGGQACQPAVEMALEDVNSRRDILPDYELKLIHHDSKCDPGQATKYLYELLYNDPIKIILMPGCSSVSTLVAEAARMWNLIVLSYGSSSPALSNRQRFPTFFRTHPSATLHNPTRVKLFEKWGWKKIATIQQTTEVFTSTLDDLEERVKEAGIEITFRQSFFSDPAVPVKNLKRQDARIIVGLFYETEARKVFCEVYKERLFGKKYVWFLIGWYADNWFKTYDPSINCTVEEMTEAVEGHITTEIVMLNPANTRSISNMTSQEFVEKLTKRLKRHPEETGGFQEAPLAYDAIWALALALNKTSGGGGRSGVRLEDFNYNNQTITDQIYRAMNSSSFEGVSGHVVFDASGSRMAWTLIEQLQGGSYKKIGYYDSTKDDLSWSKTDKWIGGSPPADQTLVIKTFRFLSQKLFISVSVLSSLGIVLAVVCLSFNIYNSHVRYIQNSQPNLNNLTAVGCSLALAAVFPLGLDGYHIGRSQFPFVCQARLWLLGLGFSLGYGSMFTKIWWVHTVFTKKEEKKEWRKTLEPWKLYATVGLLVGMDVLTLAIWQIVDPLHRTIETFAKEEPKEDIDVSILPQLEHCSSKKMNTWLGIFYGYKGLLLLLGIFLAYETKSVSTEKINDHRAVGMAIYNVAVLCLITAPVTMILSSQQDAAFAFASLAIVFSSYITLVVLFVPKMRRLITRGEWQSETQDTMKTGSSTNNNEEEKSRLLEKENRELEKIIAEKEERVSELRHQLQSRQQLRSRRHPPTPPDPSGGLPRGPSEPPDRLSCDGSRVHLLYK
# Chain of GABA B receptor (O88871 whole entry): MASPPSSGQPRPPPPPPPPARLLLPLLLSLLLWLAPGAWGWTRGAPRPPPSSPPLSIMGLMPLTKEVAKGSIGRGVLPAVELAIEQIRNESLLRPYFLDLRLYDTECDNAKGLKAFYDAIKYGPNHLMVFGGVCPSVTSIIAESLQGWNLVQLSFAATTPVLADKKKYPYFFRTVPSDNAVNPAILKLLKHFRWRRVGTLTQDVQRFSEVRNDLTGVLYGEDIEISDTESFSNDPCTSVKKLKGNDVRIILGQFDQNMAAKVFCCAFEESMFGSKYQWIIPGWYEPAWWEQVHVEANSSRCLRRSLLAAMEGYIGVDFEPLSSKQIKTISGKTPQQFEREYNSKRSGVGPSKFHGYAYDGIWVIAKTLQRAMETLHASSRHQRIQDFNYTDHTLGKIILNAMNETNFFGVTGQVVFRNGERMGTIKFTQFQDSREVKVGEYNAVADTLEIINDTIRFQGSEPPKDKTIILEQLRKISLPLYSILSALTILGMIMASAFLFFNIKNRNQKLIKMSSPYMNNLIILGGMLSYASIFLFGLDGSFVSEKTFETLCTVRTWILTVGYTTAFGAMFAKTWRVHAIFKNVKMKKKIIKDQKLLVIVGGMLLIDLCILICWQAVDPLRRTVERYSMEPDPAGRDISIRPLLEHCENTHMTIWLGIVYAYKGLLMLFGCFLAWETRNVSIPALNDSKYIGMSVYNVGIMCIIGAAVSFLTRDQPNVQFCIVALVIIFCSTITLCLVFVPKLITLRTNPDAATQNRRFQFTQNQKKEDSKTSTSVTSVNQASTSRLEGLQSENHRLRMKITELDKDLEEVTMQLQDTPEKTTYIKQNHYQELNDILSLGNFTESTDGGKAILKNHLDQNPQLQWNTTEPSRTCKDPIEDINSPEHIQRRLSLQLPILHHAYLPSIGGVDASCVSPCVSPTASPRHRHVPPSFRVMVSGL
# [2] = target: Gamma-aminobutyric acid receptor subunit rho-1 (Homo sapiens) (UniProt P24046); test: Inhibition of inward current in oocytes expressing human GABA-C receptor rho1 subunit (No inhibition); type: cell-based; conditions: Oocyte
# Chain of Gamma-aminobutyric acid receptor subunit rho-1 (Homo sapiens) (P24046 whole entry): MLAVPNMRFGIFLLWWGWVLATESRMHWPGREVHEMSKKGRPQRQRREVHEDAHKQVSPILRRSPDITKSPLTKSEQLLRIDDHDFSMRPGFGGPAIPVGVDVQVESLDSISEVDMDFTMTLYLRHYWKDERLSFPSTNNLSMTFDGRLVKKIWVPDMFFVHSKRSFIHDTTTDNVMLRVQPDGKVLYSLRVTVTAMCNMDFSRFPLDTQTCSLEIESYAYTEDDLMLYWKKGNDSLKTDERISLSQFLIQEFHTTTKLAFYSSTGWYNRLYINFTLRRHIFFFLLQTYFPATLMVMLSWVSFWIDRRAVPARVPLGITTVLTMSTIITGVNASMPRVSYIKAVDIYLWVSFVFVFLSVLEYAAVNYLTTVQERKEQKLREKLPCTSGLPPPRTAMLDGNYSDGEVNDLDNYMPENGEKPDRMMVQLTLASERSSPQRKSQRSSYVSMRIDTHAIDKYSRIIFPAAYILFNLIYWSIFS
# [3] = target: Gamma-aminobutyric acid receptor subunit rho-1 (Homo sapiens) (UniProt P24046); test: Inhibition of inward current in oocytes expressing human GABA-C receptor rho1 subunit; type: cell-based; conditions: Oocyte
# [4] = Dissociation constant was determined; type: physicochemical
SMILES,logD [1],IC50 (GABA B receptor) [µM],Kb [2],Log KB [3],pKa [4]
NCCCC(=O)O [GAMMA-AMINOBUTYRIC ACID],-3.1,,,,
NCc1cc(F)c(O)c(F)c1,-1.7,> 1000,75.5 µM,-4.12,6.98
NCc1ccc(F)c(O)c1F,-1.7,> 1000,inactive,,6.52
CP(=O)(O)C1=CCNCC1,-3.7,,,,
